Series [1] addresses T1, human progesterone receptor A (Homo sapiens, UniProt P06401).
T1 construct: expressed in transfected cells; host or cells: SK-N-MC human neuroblastoma cells, stably transfected with pRChPR-A-neo and pMMTV-LUC
T1 sequence (P06401 1-769 isoform P06401-2): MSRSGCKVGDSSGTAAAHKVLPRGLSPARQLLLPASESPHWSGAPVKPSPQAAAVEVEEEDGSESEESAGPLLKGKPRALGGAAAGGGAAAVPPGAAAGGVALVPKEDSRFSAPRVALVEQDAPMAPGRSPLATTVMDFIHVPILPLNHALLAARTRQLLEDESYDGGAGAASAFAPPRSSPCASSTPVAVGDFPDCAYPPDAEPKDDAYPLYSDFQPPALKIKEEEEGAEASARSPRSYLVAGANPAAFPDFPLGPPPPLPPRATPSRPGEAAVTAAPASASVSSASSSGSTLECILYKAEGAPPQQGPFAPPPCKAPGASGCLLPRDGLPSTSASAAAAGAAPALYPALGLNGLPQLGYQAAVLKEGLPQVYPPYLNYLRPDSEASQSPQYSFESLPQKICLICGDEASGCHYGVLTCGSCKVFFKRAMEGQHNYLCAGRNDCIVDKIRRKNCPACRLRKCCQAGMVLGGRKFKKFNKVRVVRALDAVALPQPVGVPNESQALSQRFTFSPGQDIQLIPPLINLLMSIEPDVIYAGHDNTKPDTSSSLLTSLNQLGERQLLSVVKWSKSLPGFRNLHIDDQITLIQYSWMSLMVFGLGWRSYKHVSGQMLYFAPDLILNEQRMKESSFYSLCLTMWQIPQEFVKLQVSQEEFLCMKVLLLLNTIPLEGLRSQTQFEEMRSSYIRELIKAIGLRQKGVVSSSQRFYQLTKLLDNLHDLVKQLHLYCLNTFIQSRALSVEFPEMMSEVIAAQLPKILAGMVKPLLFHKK
Nature of the series: Progesterone receptor transactivation test in stably transfected SK-N-MC cells (PR-A, MMTV-LUC reporter). Type of series: cell-based. As to conditions: 0.1 nmol/l promegestone, 24 hours, read-out: PR-A IC50 (antagonistic potency). The protocol: (§1) Progesterone receptor-antagonistic action in stable transfectants of human neuroblastoma cells (SK-N-MC cells) with the human progesterone A or progesterone B receptor and an MN-LUC reporter construct SK-N-MC cells (human neuroblastoma cells) which have been stably transfected with plasmids expressing the human progesterone receptor B (pRChPR-B-neo) or the human progesterone receptor A (pRChPR-A-neo) and a reporter construct (pMMTV-LUC) were incubated for 24 hours either in the absence (negative control) or in the presence of ascending amounts of the particular test compound (0.01 nmol/l, 0.1 nmol/l, 1 […], 100 nmol/l and […]), in order to determine the agonistic efficacy. As a positive control of the reporter gene induction, the cells were treated with the synthetic gestagen promegestone (0.01 nmol/l, 0.1 nmol/l, 1 nmol/l, 10 nmol/l, 100 nmol/l and […]). To determine the antagonistic activity, the cells were treated with 0.1 nmol/l promegestone and additionally with ascending amounts of the particular test compound (0.01 nmol/l, 0.1 nmol/l, 1 nmol/l, 10 nmol/l, 100 nmol/l and […]). The activity of the reporter gene LUC (LUC=luciferase) was determined in the cell lysates and measured as RLU (relative light units). All measurements are reported as % efficacy and as EC50 and IC50 concentrations.

The nature of series [2]: Determination of hydrolytic stability in synthetic gastric juice (pH 1.2 buffer with pepsin). The class given is in vitro ADME. Conditions: 37° C., pH 1.2 with added pepsin, test ended after 24 hours, read-out: Hydrolytic stability t1/2 in synthetic gastric juice (converted). The protocol: The esters to be analyzed were dissolved in each case in a buffer solution of pH 1.2 with added pepsin at 37° C. At different times, the content of ester and hydrolysis products (8S,11R,13S,14S,17S)-17-hydroxy-11-[4-((R)-1-hydroxyethyl)phenyl]-1 3-methyl-17-pentafluoroethyl-1,2,6,7,8,11,12,13,14,15,16,17-dodecahydrocyclopenta[a]phenanthren-3-one and/or (8S,11R,13S,14S,17S)-17-hydroxy-11-[4-((S)-1-hydroxyethyl)phenyl]-13-methyl-17-pentafluoroethyl-1,2,6,7,8,11,12,13,14,15,16,17-dodecahydrocyclopenta[a]phenanthren-3-one was determined by HPLC. The test was ended after 24 hours.

In series [3] the target is T2, human progesterone receptor B (Homo sapiens, UniProt P06401).
T2 construct: expressed in transfected cells; host or cells: SK-N-MC human neuroblastoma cells, stably transfected with pRChPR-B-neo and pMMTV-LUC
T2 sequence (P06401 1-933): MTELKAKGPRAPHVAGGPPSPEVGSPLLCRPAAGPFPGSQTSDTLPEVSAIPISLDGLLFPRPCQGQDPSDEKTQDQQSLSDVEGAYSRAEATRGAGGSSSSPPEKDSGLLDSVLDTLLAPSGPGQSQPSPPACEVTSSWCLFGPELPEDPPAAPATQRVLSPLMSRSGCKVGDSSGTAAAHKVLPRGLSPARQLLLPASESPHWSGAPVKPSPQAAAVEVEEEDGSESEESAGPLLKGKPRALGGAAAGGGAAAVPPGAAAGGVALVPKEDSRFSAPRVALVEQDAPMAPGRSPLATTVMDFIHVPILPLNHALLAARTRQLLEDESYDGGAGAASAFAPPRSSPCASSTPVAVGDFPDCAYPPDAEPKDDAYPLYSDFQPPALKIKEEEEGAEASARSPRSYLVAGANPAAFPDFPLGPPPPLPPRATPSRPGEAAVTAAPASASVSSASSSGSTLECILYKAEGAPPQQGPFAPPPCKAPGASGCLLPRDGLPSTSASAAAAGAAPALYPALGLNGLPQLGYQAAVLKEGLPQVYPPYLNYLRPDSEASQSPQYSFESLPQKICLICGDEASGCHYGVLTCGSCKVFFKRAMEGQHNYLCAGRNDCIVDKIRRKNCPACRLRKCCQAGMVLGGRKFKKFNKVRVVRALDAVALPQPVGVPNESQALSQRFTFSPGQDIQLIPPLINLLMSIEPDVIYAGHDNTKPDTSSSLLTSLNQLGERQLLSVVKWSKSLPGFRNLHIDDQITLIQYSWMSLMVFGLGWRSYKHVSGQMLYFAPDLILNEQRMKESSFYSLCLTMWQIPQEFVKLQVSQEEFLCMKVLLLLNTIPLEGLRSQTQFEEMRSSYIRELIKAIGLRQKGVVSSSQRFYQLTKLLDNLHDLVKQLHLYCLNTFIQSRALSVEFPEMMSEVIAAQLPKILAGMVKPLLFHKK
Nature of the series: Progesterone receptor transactivation test in stably transfected SK-N-MC cells (PR-B, MMTV-LUC reporter). The class given is cell-based. Conditions: 0.1 nmol/l promegestone, 24 hours, read-out: PR-B IC50 (antagonistic potency). How it is done: as §1

pIC50: −log10 of the molar value. A value given as a limit tells only on which side of the number the result lay.

Consider `CC(=O)O[C@H](C)c1ccc([C@H]2C[C@@]3(C)C(CC[C@@]3(O)C(F)(F)C(F)(F)F)C3CCC4=CC(=O)CCC4=C32)cc1` (mixture of isomers) [Example 1, acetic acid (RS)-1-[4-((8S,11R,13S,14S,17S)-17-hydroxy-13-methyl-3-oxo-17-pentafluoroethyl-2,3,6,7,8,11,12,13,14,15,16,17-dodecahydro-1H-cyclopenta[a]phenanthren-11-yl)phenyl]ethyl ester], for which the pIC50 in series [1] is 10.15; in series [3], 10.10. Further, in series [2], the half-life was 9.6 h.

With `CC(C)CC(=O)OC(C)c1ccc([C@H]2C[C@@]3(C)C(CC[C@@]3(O)C(F)(F)C(F)(F)F)C3CCC4=CC(=O)CCC4=C32)cc1` (mixture of isomers) [Example 3, 3-Methylbutyric acid (RS)-1-[4-((8S,11R,13S,14S,17S)-17-hydroxy-13-methyl-3-oxo-17-pentafluoroethyl-2,3,6,7,8,11,12,13,14,15,16,17-dodecahydro-1H-cyclopenta[a]phenanthren-11-yl)phenyl]ethyl ester], the pIC50 in series [1] is 9.68; in series [3] it was 9.70. Also, the half-life in series [2] was above 24 h.

Turning to `CC(OC(=O)CC(C)(C)C)c1ccc([C@H]2C[C@@]3(C)C(CC[C@@]3(O)C(F)(F)C(F)(F)F)C3CCC4=CC(=O)CCC4=C32)cc1` (mixture of isomers) [Example 4, 3,3-Dimethylbutyric acid (RS)-1-[4-((8S,11R,13S,14S,17S)-17-hydroxy-13-methyl-3-oxo-17-pentafluoroethyl-2,3,6,7,8,11,12,13,14,15,16,17-dodecahydro-1H-cyclopenta[a]phenanthren-11-yl)phenyl]ethyl ester], the pIC50 in series [1] was 9.70; in series [3], 9.40. The half-life in series [2] is above 24 h.

For `CC(OC(=O)[C@@H](C)NC(=O)OC(C)(C)C)c1ccc([C@H]2C[C@@]3(C)[C@@H](CC[C@@]3(O)C(F)(F)C(F)(F)F)[C@@H]3CCC4=CC(=O)CCC4=C32)cc1` (mixture of isomers) [Example 6, (R)-2-tert-Butoxycarbonylaminopropionic acid (RS)-1-[4-((8S,11R,13S,-14S,17S)-17-hydroxy-13-methyl-3-oxo-17-pentafluoroethyl-2,3,6,7,8,11,12,13,14,15,16,17-dodecahydro-1H-cyclopenta[a]phenanthren-11-yl)phenyl]ethyl ester], the values for the pIC50 in series [1] and in series [3] were 10.00 and 9.70, respectively. Also, in series [2], the half-life is 5.4 h.

As to `CC(C)C(=O)OC(C)c1ccc([C@H]2C[C@@]3(C)C(CC[C@@]3(O)C(F)(F)C(F)(F)F)C3CCC4=CC(=O)CCC4=C32)cc1` (mixture of isomers) [Example 2, Isobutyric acid (RS)-1-[4-((8S,11R,13S,14S,17S)-17-hydroxy-13-methyl-3-oxo-17-pentafluoroethyl-2,3,6,7,8,11,12,13,14,15,16,17-dodecahydro-1H-cyclopenta[a]-phenanthren-11-yl)phenyl]ethyl ester], the pIC50 in series [1] and in series [3] was 10.00 throughout. For the same compound, the half-life in series [2] was above 24 h.

As to `CC(OC(=O)[C@@H](NC(=O)OC(C)(C)C)C(C)C)c1ccc([C@H]2C[C@@]3(C)C(CC[C@@]3(O)C(F)(F)C(F)(F)F)C3CCC4=CC(=O)CCC4=C32)cc1` (mixture of isomers) [Example 5, (S)-2-tert-Butoxycarbonylamino-3-methylbutyric acid (RS)-1-[4-((8S,11R,-13S,14S,17S)-17-hydroxy-13-methyl-3-oxo-17-pentafluoroethyl-2,3,6,7,8,11,12,13,14,15,-16,17-dodecahydro-1H-cyclopenta[a]phenanthren-11-yl)phenyl]ethyl ester], the pIC50 in series [1] was 9.52; in series [3], 9.10. For the same compound, the half-life in series [2] is 3 h.

Take `CC(OC(=O)[C@H](C)NC(=O)OC(C)(C)C)c1ccc([C@H]2C[C@@]3(C)C(CC[C@@]3(O)C(F)(F)C(F)(F)F)C3CCC4=CC(=O)CCC4=C32)cc1` (mixture of isomers) [Example 7, (S)-2-tert-Butoxycarbonylaminopropionic acid (RS)-1-[4-((8S,11R,13S,-14S,17S)-17-hydroxy-13-methyl-3-oxo-17-pentafluoroethyl-2,3,6,7,8,11,12,13,14,15,16,17-dodecahydro-1H-cyclopenta[a]phenanthren-11-yl)phenyl]ethyl ester]: the pIC50 in series [1] is 9.85; in series [3], 10.00. In addition, the half-life in series [2] was 4.4 h.

For the origin of these results see patent US9096639B2, “17-hydroxy-17-pentafluorethyl-estra-4,9(10)-dien-11-acyloxyalkylene phenyl derivatives, methods for the production thereof and use thereof for treating diseases” (Bayer Intellectual Property GmbH, priority 2009, dated 2015).
